# Assay results published in paper PMC7782499, “Progerinin, an optimized progerin-lamin A binding inhibitor, ameliorates premature senescence phenotypes of Hutchinson-Gilford progeria syndrome” (Communications Biology, 2021).
# Assays:
# CYP3A4 = CYP3A4 (Homo sapiens, UniProt P08684); test: CYP inhibition, CYP3A4; type: in vitro ADME
# Description: (§1) At pre-set time-points, blood concentration of JH4 was determined by LC-MS/MS analysis[22],[23]. Other chemicals were also tested using similar protocol. In vitro ADME studies (plasma protein binding, CYP inhibition, microsomal stability, plasma stability, and hERG inhibition) were performed by New Drug Development Center (Daegu, Korea) using standard protocols[24],[25].
# Lmna G609G/+ mouse = test: Life span of Lmna G609G/+ mice; type: in vivo
# Source text: Fig. 3 In vivo favorable effect of SLC-D011. A Gross morphology of Lmna^G609G/G609G mice (10 weeks old) was ameliorated after injection with SLC-D011. At the same age, the experimental group (D011) of mice were larger than vehicle-injected control (Con) subjects regardless of gender. B, C SLC-D011 increases body weight B and extends life span C of Lmna^G609G/G609G progeria model mouse (Con: n = 8; SLC-D011: n = 8). Compared with 14.8 weeks of average (ave) life span with maximum (max) life span of 15.5 weeks, 20 mg/kg of intraperitoneal (i.p) injection (twice a week) of SLC-D011 could extend the life span upto 19 weeks (max = 21 weeks). Lmna^G609G/G609G mice were injected with SLC-D011 from age of 5-week old, *p < 0.05. D Gross morphology of SLC-D011 injected Lmna^G609G/+ mouse. […] E SLC-D011 increases body weights of Lmna^G609G/+ mice (Con: n = 10; SLC-D011: n = 11), *p < 0.05. F Favorable effect of SLC-D011 on life span of Lmna^G609G/+ mice. Compared with vehicle-injected control group (ave = 46.7 weeks and max = 48 weeks), SLC-D011 treatment obviously extended the average life span to 63 weeks (max = 64 weeks). The injection was started from 32 weeks old, **p < 0.001. “Con” means vehicle (a solvent composed of DMSO and PBS)-injected mouse group. TEXT PRINTED IN THE PICTURE: (C) D011: Kaplan-Meier survival curve in Lmna^G609G/G609G: Ave=19; Kaplan-Meier survival curve in Lmna^G609G/G609G: Max=21 | (F) D011: Kaplan-Meier survival curve in Lmna^G609G/+: Ave=63; Kaplan-Meier survival curve in Lmna^G609G/+: Max=64 DOUBTS OF THE COPYIST ABOUT THIS PICTURE: Panels C and F: the Ave/Max labels are not printed with a group name. They are assigned to D011 (solid curve) or Con (dashed curve) only by their position beside the curves. / Panel C Ave=14.8, Max=15.5 and panel F Ave=46.7, Max=48 stand beside the dashed Con curve. They are left out because Con is the control group, not a substance. / No unit is printed with the Ave/Max values. Only the axis reads Age (weeks).
# Animal experiments were performed in a facility certified by the Association for Assessment and Accreditation of Laboratory Animal Care in compliance with animal policies approved by Pusan National University. The mouse work was performed under the study protocol PNU-2019-2181, as approved by the Institutional Animal Care and Use Committee. Lmna^G609G/609G mice were generated by timed mating of heterozygous Lmna^G609G/+ provided by Carlos López-Otín (Universidad de Oviedo, Asturias, Oviedo, Spain). SLC-D011 was mixed with dimethyl sulfoxide (DMSO) and phosphate-buffered saline (PBS). It was then intraperitoneally injected into mice (20 mg/kg twice per week from 5-week-old). SLC-D011 and lonafarnib were orally administrated to mice daily at a concentration of 10 mg/ml in monoolein-based solution. Lonafarnib was generously provided by Merck, the Progeria Research Foundation (PRF) and the PRF Lonafarnib Pre-clinical Drug Supply Program. Control mice were treated with monoolein-based solution alone in the same way. Lmna^G609G/609G mice were treated with clear chemical solution throughout the life span, starting from 5 weeks of age. Lmna^G609G/+ mice were treated via intraperitoneal and oral administrations, starting from 32 weeks of age.
# Fig. S10. Or al administration of SLC-D011 suppresses premature aging features of LmnaG609G/+ mi c e . A.
# Gross morphology of SLC-D011 treated Lmna G609G/+ mice at 36 weeks old. […]
# [1] = target: hERG (human Ether-à-go-go-Related Gene) (Homo sapiens, UniProt Q12809); test: hERG inhibition; type: in vitro ADME
# Description: as §1
# [2] = Pharmacokinetic analysis of SLC-D011 dissolved in monoolein-based solution, oral; type: in vivo; set-up: unit not given here
# Description: Fig. S9. In vitro ADME results of SLC-D011 via oral administration. A. Formulation for complete dissolution. Due to its extremely hydrophobic property, SLC-D011 was not dissolved in water solution (left). To overcome this problem, several edible solutions were tested and monoolein- based solution was selected as a dissolving solution (right). B. SLC-D011 was very stable in solution. For complete dissolution, heating at 80℃ and sonication step were required. However, SLC -D011 was not broken despite of heating […]
# and sonication. […] C and D.
# Pharmacokinetic analysis of SLC -D011dissolved in monoolein- based solution.
# hERG (human Ether-à-go-go-Related Gene), sequence (Q12809 whole entry): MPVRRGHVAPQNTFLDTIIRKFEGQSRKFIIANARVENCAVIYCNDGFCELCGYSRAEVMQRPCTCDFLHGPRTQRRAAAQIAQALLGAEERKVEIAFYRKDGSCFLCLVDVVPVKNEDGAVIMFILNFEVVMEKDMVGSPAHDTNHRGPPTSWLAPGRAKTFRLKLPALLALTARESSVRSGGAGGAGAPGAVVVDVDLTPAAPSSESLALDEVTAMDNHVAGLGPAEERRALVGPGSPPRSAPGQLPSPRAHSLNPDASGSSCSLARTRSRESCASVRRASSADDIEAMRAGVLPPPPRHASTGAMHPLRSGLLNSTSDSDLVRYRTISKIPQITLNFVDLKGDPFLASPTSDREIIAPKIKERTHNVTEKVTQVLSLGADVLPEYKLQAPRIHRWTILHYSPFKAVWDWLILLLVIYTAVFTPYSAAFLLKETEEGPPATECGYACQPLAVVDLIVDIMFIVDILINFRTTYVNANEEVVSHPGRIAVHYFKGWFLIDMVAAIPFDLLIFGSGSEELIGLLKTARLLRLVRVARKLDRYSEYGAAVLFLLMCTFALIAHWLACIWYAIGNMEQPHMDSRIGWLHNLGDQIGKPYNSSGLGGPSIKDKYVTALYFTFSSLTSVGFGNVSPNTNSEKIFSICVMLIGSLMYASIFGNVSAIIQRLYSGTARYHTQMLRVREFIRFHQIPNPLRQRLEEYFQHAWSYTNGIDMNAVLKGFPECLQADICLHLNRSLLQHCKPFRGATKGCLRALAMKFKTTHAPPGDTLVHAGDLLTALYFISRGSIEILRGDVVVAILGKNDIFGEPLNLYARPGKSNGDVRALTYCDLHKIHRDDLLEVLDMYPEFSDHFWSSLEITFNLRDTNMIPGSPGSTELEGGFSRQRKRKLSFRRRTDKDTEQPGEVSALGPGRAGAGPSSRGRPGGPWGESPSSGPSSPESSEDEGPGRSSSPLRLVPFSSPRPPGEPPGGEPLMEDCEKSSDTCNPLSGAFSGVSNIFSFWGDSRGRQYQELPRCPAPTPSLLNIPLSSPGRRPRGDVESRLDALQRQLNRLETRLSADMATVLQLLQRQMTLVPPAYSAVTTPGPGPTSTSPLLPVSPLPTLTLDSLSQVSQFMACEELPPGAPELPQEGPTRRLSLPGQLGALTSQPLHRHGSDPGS
# CYP3A4, sequence (P08684 whole entry): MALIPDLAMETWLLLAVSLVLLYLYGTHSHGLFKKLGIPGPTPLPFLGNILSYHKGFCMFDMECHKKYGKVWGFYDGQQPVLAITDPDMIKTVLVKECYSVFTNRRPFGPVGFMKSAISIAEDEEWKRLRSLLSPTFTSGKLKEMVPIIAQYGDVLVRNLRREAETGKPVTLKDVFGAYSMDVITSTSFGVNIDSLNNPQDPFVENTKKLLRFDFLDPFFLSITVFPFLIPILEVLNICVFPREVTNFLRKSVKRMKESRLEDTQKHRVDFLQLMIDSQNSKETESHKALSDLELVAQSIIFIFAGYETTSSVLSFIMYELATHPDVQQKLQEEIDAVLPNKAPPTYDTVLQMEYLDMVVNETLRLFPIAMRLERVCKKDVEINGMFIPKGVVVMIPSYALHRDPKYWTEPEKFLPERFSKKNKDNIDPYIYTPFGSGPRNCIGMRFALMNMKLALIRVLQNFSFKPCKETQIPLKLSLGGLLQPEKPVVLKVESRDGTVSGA
smiles,measurement,setting,value
CC1(C)Oc2cc3oc(=O)ccc3cc2C[C@@H]1OC/C=C/c1ccccc1 [SLC-D011],CYP inhibition,CYP3A4,92.5
same,Average life span,Lmna G609G/+ mouse; i.p. injection from 32 weeks old,63 weeks
same,Extension of life span,"Lmna G609G/+ mouse; i.p. injection, longer than control (untreated)",~ 16 weeks
same,Maximum life span,Lmna G609G/+ mouse; oral 50 mg/kg daily,65.5 weeks
same,Average life span,"Lmna G609G/+ mouse; oral 50 mg/kg daily, 50 mg/kg",64.9 weeks
same,Average life span,"Lmna G609G/+ mouse; oral 50 mg/kg daily, listed as progerinin, 50 mg/kg",65 weeks
same,hERG inhibition (in words),[1],without severe hERG inhibition
same,hERG inhibition: % Inhibition,[1]; Conc: 1uM,14.673±4.74%
same,hERG inhibition: % Inhibition,[1]; Conc: 10uM,66.31±16.77%
same,"Plasma concentration, Mean","[2]; oral 10mg/kg (n=3), 0.25 hr",41
same,"Plasma concentration, Mean","[2]; oral 10mg/kg (n=3), 0.5 hr",71
same,"Plasma concentration, Mean","[2]; oral 10mg/kg (n=3), 1 hr",124.8
same,"Plasma concentration, Mean","[2]; oral 10mg/kg (n=3), 2 hr",441.9
same,"Plasma concentration, Mean","[2]; oral 10mg/kg (n=3), 4 hr",318.8
same,"Plasma concentration, Mean","[2]; oral 10mg/kg (n=3), 8 hr",160.1
same,"Plasma concentration, Mean","[2]; oral 10mg/kg (n=3), 24 hr",7.7
same,"Plasma concentration, Mean","[2]; oral 20mg/kg (n=3), 0.25 hr",67.3
same,"Plasma concentration, Mean","[2]; oral 20mg/kg (n=3), 0.5 hr",93.1
same,"Plasma concentration, Mean","[2]; oral 20mg/kg (n=3), 1 hr",537.5
same,"Plasma concentration, Mean","[2]; oral 20mg/kg (n=3), 2 hr",581.7
same,"Plasma concentration, Mean","[2]; oral 20mg/kg (n=3), 4 hr",899.9
same,"Plasma concentration, Mean","[2]; oral 20mg/kg (n=3), 8 hr",574
same,"Plasma concentration, Mean","[2]; oral 20mg/kg (n=3), 24 hr",9.7
